How the values were obtained:
THP-1 cells = assay: Peptide binding to human cells, flow cytometry; details: 5 μg/ml; 1×10^7 cells/ml
Experimental: (§1) 5 μg/ml of the N-term biotin-tagged MASP-1 peptide was incubated with THP-1 and HMEC-1 cells (1×10^7 cells/ml). The peptide binding was subsequently detected with a FITC-coupled streptavidin using flow cytometry (Beckman Coulter, Gallios).

HMEC-1 cells = assay: Peptide binding to human cells, flow cytometry; details: 5 μg/ml; 1×10^7 cells/ml
Experimental: as §1

A. fumigatus conidia [1] = assay: Biotin-tagged 30 amino acid peptide binding to heat-inactivated conidia, FITC-streptavidin flow cytometry; design: species or system Aspergillus fumigatus; details: for peptide binding to A. fumigatus conidia: 5 μg/ml N-term biotin-tagged peptide, 1×10^7 heat-inactivated conidia/ml
Experimental: (§2) A 30 amino acid peptide comprising the KLMAR sequence was generated with an N-terminal biotin-tag. […] 5 μg/ml of the N-term biotin-tagged peptides were incubated with 1×10^7 heat-inactivated conidia/ml from different Aspergillus species and from fungi belonging to the Mucorales order. The peptide binding was subsequently detected with a FITC-coupled streptavidin using flow cytometry (Beckman Coulter, Gallios).
Three 30 amino acid peptides from the CCP2 domain of MASP-1 were generated with an N-terminal biotin-tag. CCP2 Ctrl.Pep1: […], CCP2 Ctrl.Pep2: […], CCP2 Ctrl.Pep3: […]. 5 and 10 μg/ml of the N-term biotin-tagged peptides were incubated with 1×10^7 heat-inactivated A. fumigatus conidia/ml and the peptide binding was detected with a FITC-coupled streptavidin using flow cytometry (BD, Celesta).
5 μg/ml of the N-term biotin-tagged peptides with C→S mutations at position 7 (C7S), position 11 (C11S) and both positions (C7S+C11S) were incubated with 1×10^7 heat-inactivated A. fumigatus conidia/ml. The peptide binding was subsequently detected with a FITC-coupled streptavidin using flow cytometry (BD, Celesta).
5 μg/ml of the N-term biotin-tagged MASP-1 peptide were incubated with 1×10^7 heat-inactivated A. fumigatus conidia/ml in barbital buffer (containing Ca2+) with or without 20 mM EDTA that chelates the calcium. The peptide binding was subsequently detected with a FITC-coupled streptavidin using flow cytometry (Beckman Coulter, Gallios).
The binding of the MASP-1 peptide was compared to the binding of a MASP-3 peptide covering the same protein region and thus having partly overlapping amino acid sequences. MASP-1 peptide: […] (SEQ ID NO: 1). MASP-3 peptide: […] (SEQ ID NO: 3). 5 μg/ml of the N-term biotin-tagged peptides were incubated with 1×10^7 heat-inactivated A. fumigatus conidia/ml. The peptide binding was subsequently detected with a FITC-coupled streptavidin using flow cytometry (Beckman Coulter, Gallios).

A. terreus = assay: Biotin-tagged peptide binding to heat-inactivated conidia, flow cytometry; design: species or system Aspergillus terreus; details: 5 μg/ml
Experimental: as §2

A. flavus = assay: as above; design: species or system Aspergillus flavus; details: 5 μg/ml
Experimental: as §2

A. niger = assay: as above; design: species or system Aspergillus niger; details: 5 μg/ml
Experimental: as §2

Mucor circinelloides = assay: as above; details: 5 μg/ml
Experimental: as §2

Lichtemia corymbifera = assay: as above; details: 5 μg/ml
Experimental: as §2

Rhizopus arrhizus = assay: as above; details: 5 μg/ml
Experimental: as §2

A. fumigatus conidia [2] = assay: rMASP-1 (wild-type/mutated) binding to heat-inactivated conidia, flow cytometry; design: species or system Aspergillus fumigatus; details: 5 μg/ml, 1×10^7 heat-inactivated conidia/ml
Experimental: A. fumigatus conidia were heat-inactivated (15 min 121° C.) to eliminate contamination in the laboratory. 1×10^7 conidia/ml were incubated with 5 μg/ml recombinant wild-type MASP-1 (^444KLMAR^448) or mutated rMASP-1 (^444DDDDK^448). The binding of MASP-1 was detected using 10 μg/ml of a pan anti-MASP-1/-3/MAP-1 monoclonal antibody 8B3 followed by a FITC-conjugated goat anti-mouse polyclonal antibody. Binding was measured as the mean fluorescence intensity using flow cytometry (Beckman Coulter, Gallios).
The experiment in this example 2A was performed using the method as described in example 2.

Aspergillus fumigatus = assay: Recombinant MASP-1 binding to A. fumigatus growth stages, fluorescence microscopy; details: 5 μg/ml, resting conidia, swollen conidia, germ tubes and hyphae
Experimental: MASP-1 binding was tested on the different growth stages of A. fumigatus. First, the A. fumigatus conidia were incubated on microscopy glass slides for 0, 4, 8 and 16 hours to obtain resting conidia, swollen conidia, germ tubes and hyphae. Recombinant MASP-1 was then added in a concentration of 5 μg/ml and binding was detected with a pan anti-MASP-1/-3/MAP-1 monoclonal antibody 8B3 and Alexa fluor 488-coupled goat anti-mouse antibody. […] This is very surprising since until now, MASP-1 is known only to interact with endogenous pattern recognition molecules (PRMs) and not so-called pathogen-associated molecular patterns (PAMPs).
MASP-1, a serine protease from the complement system, binds directly to various pathogenic fungi, for example, Aspergillus fumigatus and this knowledge can be utilized to design a targeted antifungal compound. MASP-1 binding was tested on the different growth stages of A. fumigatus. First, the A. fumigatus conidia were incubated on microscopy glass slides for 0, 4, 8 and 16 hours to obtain resting conidia, swollen conidia, germ tubes and hyphae. Recombinant MASP-1 was then added in a concentration of 5 μg/ml and binding was detected with a pan anti-MASP-1/-3/MAP-1 monoclonal antibody 8B3 and Alexa fluor 488-coupled goat anti-mouse antibody.

Molecule: MASP-1 peptide: 30 amino acid MASP-1 peptide GRSLPTCLPVCGLPKFSRKLMARIFNGRPA (SEQ ID NO: 1)
- peptide binding to THP-1 monocytic cell line (THP-1 cells): did not show any binding
- peptide binding to HMEC-1 endothelial cell line (HMEC-1 cells): did not show any binding
- peptide binding to A. fumigatus conidia (A. fumigatus conidia [1]): successfully bound
- peptide binding to A. fumigatus conidia with calcium (A. fumigatus conidia [1]; 5 μg/ml, barbital buffer (containing Ca2+) without EDTA): bound equally well
- peptide binding to A. fumigatus conidia without calcium (A. fumigatus conidia [1]; 5 μg/ml, barbital buffer with 20 mM EDTA): bound equally well
- peptide binding to A. fumigatus conidia (median fluorescence intensity), CCP2 domain comparison (A. fumigatus conidia [1]; 5 and 10 μg/ml, heat-inactivated conidia, BD Celesta): bound
- peptide binding to A. terreus conidia (A. terreus): successfully bound
- peptide binding to A. flavus conidia (A. flavus): successfully bound
- peptide binding to A. niger conidia (A. niger): successfully bound
- peptide binding to Mucor circinelloides conidia (Mucor circinelloides): successfully bound
- peptide binding to Lichtemia corymbifera conidia (Lichtemia corymbifera): successfully bound
- peptide binding to Rhizopus arrhizus conidia (Rhizopus arrhizus): successfully bound

Molecule: MASP-3 peptide: 30 aa MASP-3 peptide covering the same protein region, GRSLPTCLPECGQPSRSLPSLVKRIIGGRN (SEQ ID NO: 3) (listed as Homo sapiens) [reference compound]
- peptide binding to THP-1 monocytic cell line (THP-1 cells): Neither of the 30 aa MASP peptides bind
- peptide binding to HMEC-1 endothelial cell line (HMEC-1 cells): Neither of the 30 aa MASP peptides bind
- peptide binding to A. fumigatus conidia (A. fumigatus conidia [1]): did not bind

B1: wild-type rMASP-1 (^444KLMAR^448): recombinant wild-type MASP-1, a serine protease from the complement system, containing 444KLMAR448 (protein, UniProt P48740 20-699, looked up)
Mannan-binding lectin serine …: HTVELNNMFGQIQSPGYPDSYPSDSEVTWNITVPDGFRIKLYFMHFNLESSYLCEYDYVKVETEDQVLATFCGRETTDTEQTPGQEVVLSPGSFMSITFRSDFSNEERFTGFDAHYMAVDVDECKEREDEELSCDHYCHNYIGGYYCSCRFGYILHTDNRTCRVECSDNLFTQRTGVITSPDFPNPYPKSSECLYTIELEEGFMVNLQFEDIFDIEDHPEVPCPYDYIKIKVGPKVLGPFCGEKAPEPISTQSHSVLILFHSDNSGENRGWRLSYRAAGNECPELQPPVHGKIEPSQAKYFFKDQVLVSCDTGYKVLKDNVEMDTFQIECLKDGTWSNKIPTCKIVDCRAPGELEHGLITFSTRNNLTTYKSEIKYSCQEPYYKMLNNNTGIYTCSAQGVWMNKVLGRSLPTCLPVCGLPKFSRKLMARIFNGRPAQKGTTPWIAMLSHLNGQPFCGGSLLGSSWIVTAAHCLHQSLDPEDPTLRDSDLLSPSDFKIILGKHWRLRSDENEQHLGVKHTTLHPQYDPNTFENDVALVELLESPVLNAFVMPICLPEGPQQEGAMVIVSGWGKQFLQRFPETLMEIEIPIVDHSTCQKAYAPLKKKVTRDMICAGEKEGGKDACAGDSGGPMVTLNRERGQWYLVGTVSWGDDCGKKDRYGVYSYIHHNKDWIQRVTGVRN
- binding of rMASP-1 to A. fumigatus conidia (mean fluorescence intensity) (A. fumigatus conidia [2]): binds
- recombinant MASP-1 binding to A. fumigatus growth stages (Aspergillus fumigatus): binding was detected for all growth stages

B2: mutated rMASP-1 (^444DDDDK^448): recombinant MASP-1 in which 444KLMAR448 was substituted by DDDDK (SEQ ID NO: 4), activated version (protein, UniProt P48740 20-699, looked up, variant K444D L445D M446D A447D R448K)
Mannan-binding lectin serine …: HTVELNNMFGQIQSPGYPDSYPSDSEVTWNITVPDGFRIKLYFMHFNLESSYLCEYDYVKVETEDQVLATFCGRETTDTEQTPGQEVVLSPGSFMSITFRSDFSNEERFTGFDAHYMAVDVDECKEREDEELSCDHYCHNYIGGYYCSCRFGYILHTDNRTCRVECSDNLFTQRTGVITSPDFPNPYPKSSECLYTIELEEGFMVNLQFEDIFDIEDHPEVPCPYDYIKIKVGPKVLGPFCGEKAPEPISTQSHSVLILFHSDNSGENRGWRLSYRAAGNECPELQPPVHGKIEPSQAKYFFKDQVLVSCDTGYKVLKDNVEMDTFQIECLKDGTWSNKIPTCKIVDCRAPGELEHGLITFSTRNNLTTYKSEIKYSCQEPYYKMLNNNTGIYTCSAQGVWMNKVLGRSLPTCLPVCGLPKFSRDDDDKIFNGRPAQKGTTPWIAMLSHLNGQPFCGGSLLGSSWIVTAAHCLHQSLDPEDPTLRDSDLLSPSDFKIILGKHWRLRSDENEQHLGVKHTTLHPQYDPNTFENDVALVELLESPVLNAFVMPICLPEGPQQEGAMVIVSGWGKQFLQRFPETLMEIEIPIVDHSTCQKAYAPLKKKVTRDMICAGEKEGGKDACAGDSGGPMVTLNRERGQWYLVGTVSWGDDCGKKDRYGVYSYIHHNKDWIQRVTGVRN
modifications: activated
- binding of rMASP-1 to A. fumigatus conidia (mean fluorescence intensity) (A. fumigatus conidia [2]): did not bind
- binding of rMASP-1 to A. fumigatus conidia (mean fluorescence intensity) (A. fumigatus conidia [2]; listed as active mutated rMASP-1): Neither the active nor zymogen mutated rMASP-1 (44^4DDDDK^448) bound

B3: zymogen mutated rMASP-1: zymogen version of the mutated rMASP-1 (444DDDDK448) (protein, UniProt P48740 20-699, looked up, variant K444D L445D M446D A447D R448K)
pro-form: HTVELNNMFGQIQSPGYPDSYPSDSEVTWNITVPDGFRIKLYFMHFNLESSYLCEYDYVKVETEDQVLATFCGRETTDTEQTPGQEVVLSPGSFMSITFRSDFSNEERFTGFDAHYMAVDVDECKEREDEELSCDHYCHNYIGGYYCSCRFGYILHTDNRTCRVECSDNLFTQRTGVITSPDFPNPYPKSSECLYTIELEEGFMVNLQFEDIFDIEDHPEVPCPYDYIKIKVGPKVLGPFCGEKAPEPISTQSHSVLILFHSDNSGENRGWRLSYRAAGNECPELQPPVHGKIEPSQAKYFFKDQVLVSCDTGYKVLKDNVEMDTFQIECLKDGTWSNKIPTCKIVDCRAPGELEHGLITFSTRNNLTTYKSEIKYSCQEPYYKMLNNNTGIYTCSAQGVWMNKVLGRSLPTCLPVCGLPKFSRDDDDKIFNGRPAQKGTTPWIAMLSHLNGQPFCGGSLLGSSWIVTAAHCLHQSLDPEDPTLRDSDLLSPSDFKIILGKHWRLRSDENEQHLGVKHTTLHPQYDPNTFENDVALVELLESPVLNAFVMPICLPEGPQQEGAMVIVSGWGKQFLQRFPETLMEIEIPIVDHSTCQKAYAPLKKKVTRDMICAGEKEGGKDACAGDSGGPMVTLNRERGQWYLVGTVSWGDDCGKKDRYGVYSYIHHNKDWIQRVTGVRN
modifications: pro-form zymogen, enterokinase site
- binding of rMASP-1 to A. fumigatus conidia (mean fluorescence intensity) (A. fumigatus conidia [2]): Neither the active nor zymogen mutated rMASP-1 (44^4DDDDK^448) bound

— patent publication US20250304939A1, “TAILORED ANTI-FUNGAL DRUGS AND TOOLS TO DIAGNOSE INVASIVE FUNGAL INFECTIONS” (priority 2022, published 2025)
